Measured values reported in patent US12370235B2, “Synthetic, non-natural antimicrobial peptides inspired by Staphylococcus auricularis delta toxin” (University of Saskatchewan, priority 2021, dated 2025).
Ends that are not written are not given here.

Columns and labels:
[1] = system: Candida haemulonii AR 395; test: MIC, YPD broth, CDC and FDA AR Candida isolate panel; format: cell-based; details: Table 9 below the line: only 200 or 100 μg/mL tested; values reported as 100 are ≤100 μg/mL
Method in brief: (§1)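 Broth microdilution in YPD; yeast diluted to optical density […] and mixed with 2-fold serial dilutions of peptide (95% purity), water control. Standing cultures incubated overnight at 37 °C.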

Candida krusei AR 397 = test: as above; format: cell-based
Method in brief: as §1

[2] = system: Candida duobushaemulonii AR 392; test: as above; format: cell-based
Method in brief: as §1

[3] = system: Saccharomyces cerevisiae AR 400; test: as above; format: cell-based
Method in brief: as §1

[4] = system: Candida lusitaniae AR 398; test: as above; format: cell-based
Method in brief: as §1

[5] = system: Saccharomyces cerevisiae AR 399; test: as above; format: cell-based
Method in brief: as §1

Kodamae ohmeri AR 396 = test: as above; format: cell-based
Method in brief: as §1

[6] = system: Candida haemulonii AR 393; test: as above; format: cell-based
Method in brief: as §1

[7] = system: Candida duobushaemulonii AR 394; test: as above; format: cell-based
Method in brief: as §1

[8] = system: Candida duobushaemulonii AR 391; test: as above; format: cell-based
Method in brief: as §1

C. albicans Y537 = test: MIC, YPD broth; format: cell-based, Candida albicans; details: Table 8
C. albicans MYA-2876 = test: MIC, YPD broth; format: cell-based, Candida albicans; details: Table 8
Method in brief: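 Yeast cells were diluted in YPD broth, and 180 μl aliquots were mixed with 20 μl of peptide from 2-fold serial dilutions in flat-bottom 96-well microtitre plates. Wells receiving 20 μl sterile water served as controls. After standing incubation overnight at 37° C, the MIC was taken as the lowest peptide concentration with no visible microbial growth.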

[9] = system: S. aureus ATCC BAA-41 (MRSA SCCmec type II); test: MIC, broth dilution; format: cell-based, Staphylococcus aureus; details: Table 5; STIP3 variants, highest concentration 100 μg/mL
Method in brief: (§2)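 Peptides of 95% purity tested as 2-fold dilution series against bacteria diluted to OD 6×10^−4 in cation-adjusted Mueller Hinton broth. Standing cultures incubated overnight at 37° C; MIC is the lowest concentration with no visible growth.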

[10] = system: S. aureus ATCC BAA-44 (MRSA SCCmec type I); test: MIC, broth dilution; format: cell-based, Staphylococcus aureus; details: Table 5; STIP3 variants, highest concentration 100 μg/mL
Method in brief: as §2

[11] = system: S. aureus ATCC BAA-2094 (MRSA SCCmec type V); test: MIC, broth dilution; format: cell-based, Staphylococcus aureus; details: Table 5; STIP3 variants, highest concentration 100 μg/mL
Method in brief: as §2

[12] = system: S. aureus ATCC BAA-42 (MRSA SCCmec type VI); test: MIC, broth dilution; format: cell-based, Staphylococcus aureus; details: Table 5; STIP3 variants, highest concentration 100 μg/mL
Method in brief: as §2

S. aureus ATCC 29213 = test: MIC, broth dilution; format: cell-based, Staphylococcus aureus; details: Table 5; STIP3 variants, highest concentration 100 μg/mL
Method in brief: as §2

[13] = system: S. aureus ATCC 33592 (MRSA SCCmec type III); test: MIC, broth dilution; format: cell-based, Staphylococcus aureus; details: Table 5; STIP3 variants, highest concentration 100 μg/mL
Method in brief: as §2

[14] = system: S. aureus ATCC BAA-2313 (MRSA SCCmec type XI); test: MIC, broth dilution; format: cell-based, Staphylococcus aureus; details: Table 5; STIP3 variants, highest concentration 100 μg/mL
Method in brief: as §2

[15] = system: S. aureus ATCC BAA-1683 (MRSA SCCmec type IV); test: MIC, broth dilution; format: cell-based, Staphylococcus aureus; details: Table 5; STIP3 variants, highest concentration 100 μg/mL
Method in brief: as §2

[16] = system: Mannheimia haemolytica ATCC 33393; test: MIC, broth dilution; format: cell-based; details: Table 11; highest concentration 25 μg/mL
Method in brief: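 Read-out is the lowest peptide concentration showing no growth after an overnight standing culture at 37 °C. Two-fold serial dilutions of 95%-pure peptide were tested against M. haemolytica ATCC 33393 at OD 6×10^−4 in cation-adjusted MH broth.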

[17] = Table 9 below the line: only 200 or 100 μg/mL tested, values reported as 100 are ≤100 μg/mL
[18] = Table 9 top part: titrations from 1.56 to 100 μg/mL

Substance	MIC (μg/mL) Candida haemulonii AR 395 [1]	MIC (μg/mL) Candida krusei AR 397 (Candida krusei AR 397; [17]) [µg/mL]	MIC (μg/mL) Candida duobushaemulonii AR 392 [2, 17]	MIC (μg/mL) Saccharomyces cerevisiae AR 400 [3, 17] [µg/mL]	MIC (μg/mL) Candida lusitaniae AR 398 [4, 17] [µg/mL]	MIC (μg/mL) Saccharomyces cerevisiae AR 399 [5, 17] [µg/mL]	MIC (μg/mL) Kodamae ohmeri AR 396 (Kodamae ohmeri AR 396; [17])	MIC (μg/mL) Candida haemulonii AR 393 [6, 17]	MIC (μg/mL) Candida duobushaemulonii AR 394 [7, 17]	MIC C. albicans Y537 (C. albicans Y537)	MIC C. albicans MYA-2876 (C. albicans MYA-2876) [µg/mL]	MIC S. aureus ATCC BAA 41 (II) [9] [µg/mL]	MIC S. aureus ATCC BAA 44 (I) [10] [µg/mL]	MIC S. aureus ATCC BAA 2094 (V) [11] [µg/mL]	MIC S. aureus ATCC BAA 42 (VI) [12]	MIC S. aureus ATCC 29213 (S. aureus ATCC 29213) [µg/mL]	MIC S. aureus ATCC 33592 (III) [13] [µg/mL]	MIC S. aureus ATCC BAA 2313 (XI) [14]	MIC S. aureus ATCC BAA 1683 (IV) [15]	MIC (μg/mL) M. haemolytica [16] [µg/mL]	also measured
TVGGLVKWILDTVKKFA-NH2 [STIP3-27, TVGGLVKWILDTVKKFA-NH2]	> (values below the line were determined using two concentrations of peptide 200 or 100 μg/mL)	≤ 100	> (values below the line were determined using two concentrations of peptide 200 or 100 μg/mL)	≤ 100	≤ 100	≤ 100	≤ 100 µg/mL	> (values below the line were determined using two concentrations of peptide 200 or 100 μg/mL)	> (values below the line were determined using two concentrations of peptide 200 or 100 μg/mL)	50 µg/mL	25	25	25	25	25 µg/mL	50	50	50 µg/mL	25 µg/mL	25	MIC (μg/mL) Candida duobushaemulonii AR 391 [8, 17]: > (values below the line were determined using two concentrations of peptide 200 or 100 μg/mL)
TVGGLVKWILKTVKKFA [STIP3-3, TVGGLVKWILKTVKKFA]	> (values below the line were determined using two concentrations of peptide 200 or 100 μg/mL)	≤ 100	> (values below the line were determined using two concentrations of peptide 200 or 100 μg/mL)	≤ 100	≤ 100	≤ 100	≤ 100 µg/mL	> (values below the line were determined using two concentrations of peptide 200 or 100 μg/mL)	> (values below the line were determined using two concentrations of peptide 200 or 100 μg/mL)	50 µg/mL	25	25	25	25	50 µg/mL	25	25	50 µg/mL	50 µg/mL	12.5	MIC (μg/mL) Candida duobushaemulonii AR 391 [8, 17]: ≤ 100 µg/mL
TVKGLVKWILNVVKKFA-NH2 [STIP3-30, TVKGLVKWILNVVKKFA-NH2]										50 µg/mL	25	25	12.5	25	25 µg/mL	12.5	12.5	25 µg/mL	12.5 µg/mL	12.5	MIC (μg/mL) Candida krusei AR 397 (Candida krusei AR 397; [18]): 12.5 µg/mL; MIC (μg/mL) Candida duobushaemulonii AR 392 [2, 18]: 25 µg/mL; MIC (μg/mL) Saccharomyces cerevisiae AR 400 [3, 18]: 12.5 µg/mL; MIC (μg/mL) Candida lusitaniae AR 398 [4, 18]: 6.25 µg/mL; MIC (μg/mL) Saccharomyces cerevisiae AR 399 [5, 18]: 25 µg/mL; MIC (μg/mL) Kodamae ohmeri AR 396 (Kodamae ohmeri AR 396; [18]): 25 µg/mL; MIC (μg/mL) Candida haemulonii AR 393 [6, 18]: 100 µg/mL; MIC (μg/mL) Candida duobushaemulonii AR 394 [7, 18]: 25 µg/mL; MIC (μg/mL) Candida duobushaemulonii AR 391 [8, 18]: 12.5 µg/mL
TVKKLVKWILKTVKKFA [STIP3-18, TVKKLVKWILKTVKKFA]	> (values below the line were determined using two concentrations of peptide 200 or 100 μg/mL)	≤ 100	≤ 100 µg/mL	≤ 100	≤ 100	≤ 100	> (values below the line were determined using two concentrations of peptide 200 or 100 μg/mL)	> (values below the line were determined using two concentrations of peptide 200 or 100 μg/mL)	≤ 100 µg/mL	> (> symbol indicates that no inhibition was observed at the highest concentration of peptide tested: 100 μg/mL)	50	100	100	100	> (no inhibition was observed at the highest concentration of peptide tested: 100 μg/mL for the STIP3 variants)	100	100	> (no inhibition was observed at the highest concentration of peptide tested: 100 μg/mL for the STIP3 variants)	> (no inhibition was observed at the highest concentration of peptide tested: 100 μg/mL for the STIP3 variants)	6.25	MIC (μg/mL) Candida duobushaemulonii AR 391 [8, 17]: ≤ 100 µg/mL
